From patent US10478492B2, “Modifications of therapeutic agents for enhanced delivery to target sites” (Partikula LLC, priority 2016, dated 2019)
Where two headings read alike, the source gives them in different places. Values belong to the molecule of their own block, whether it stands above or below them.

Key:
A549 cells = test: Cytotoxicity in A549 cells; type: cell-based
Text: (§1) Next the cytotoxicity ability of PDCA and PDCA-NPs were studied in A549 and HCT16 cells to evaluate the ability of these new formulations with respect to NaDCA.
(§2) Next the cytotoxicity ability of PalmMetformin and NPs were studied in A549 and HCT16 cells to evaluate the ability of these new formulations with respect to Meformin.

[1] = Stability in 18% rat serum by HPLC; type: in vitro ADME
Protocol: (§3) In a further study, Mito-ADCA stability testing was carried out in rat serum. 0.5 mg/mL solutions 18% rat serum were prepared and analyzed by HPLC. Mito-ADCA was detected at 268 nm with a retention time of 18.08 min over time of 4500 min in 18% rat serum. […] After 2 d a peak of TPP-Tris-OH was observed. The amount of TPP-Tris-OH corresponded to 76% of the original.
(§4) Stability of TPP-bis-ADCA in rat serum and water was carried out using 500 μg/mL solution in 18% rat serum. The solution was analyzed by HPLC for two days.
(§5) Hydrolytic stability of TPP-ibDCA in serum, and in water was studied. A 500 μg/mL solution of TPP-ib-DCA in water, and in 18% rat serum was analyzed by HPLC using the method for Mito-ADCA/DCA detection described above. […] In water, hydrolysis of TPP-ib-DCA stops halfway likely due to the acidification of the solution.

[2] = Stability in water by HPLC; type: physicochemical; conditions: for stability in water: 2 days
Protocol: as §3, §4, §5

HCT116 cells = test: Cytotoxicity in HCT116 cells; type: cell-based
Text: as §1, §2

[3] = Stability in cell culture media containing 10% FBS by HPLC; type: in vitro ADME
Protocol: Stability of ADCA in cell culture media containing 10% FBS was examined by looking at the HPLC chromatograms and area under the peaks. For the study, […] solution of ADCA was prepared by mixing 10 μL of 100 mM DMSO stock solution with 1.99 mL of cell media. Turbidity was observed after mixing, however no precipitate was observed. The samples were then stored at 37° C., 150 μL aliquots were analyzed by HPLC (the sample was mixed before taking an aliquot, however no visible precipitate was observed even before mixing). Alanyl-DCA was detected at 205 nm with a retention time of 9.7 min on HPLC.
Stability of Mito-ADCA in cell culture media containing 10% FBS was monitored by examining the HPLC chromatograms and area under the peaks. Scheme below expected degradation products:
For this study, 500 μM solution of Mito-ADCA (MAD) was prepared by mixing 10 μL of 100 mM DMSO stock solution with 1.99 mL of cell culture media (RPMI 1640 medium, supplemented with 10% FBS, 1% Pen/strep). Turbidity was observed after mixing, however no precipitate was observed. The samples were then stored at 37° C., 150 μL aliquots were analyzed by HPLC (the sample was mixed before taking an aliquot, and no visible precipitate was observed even before mixing).
Using HPLC, MitoADCA (MAD), loss of one alanyl-DCA (MAD-ADCA), loss of three alanyl-DCA (i.e., TPP-Tris-OH) and the alanyl-DCA (ADCA) were tracked. MAD was detected and monitored at 268 nm with retention time of 18.08 min, Mito-A-DCA missing 1 alanyl DCA at 268 nm with retention time of 17.13 min, total amount of MAD and Mito-A-DCA missing 1 alanyl DCA at 268 nm, TPP-Tris-OH at 268 nm with retention time of 14.6 min, and alanyl DCA at 205 nm with retention time of 9.5 min. The MAD half-life in cell media at 500 μM was measured as ˜20 h. TPP-Tris-OH starts appearing in HPLC only after 10 h in media.

PDHK2 = PDHK2 (Homo sapiens, UniProt Q15119); conditions: cited from earlier work
[4] = test system: PDH activity in primary rat hepatocytes; conditions: read-out: EC50 for increase of PDH activity; cited from earlier work
[5] = target: monocarboxylate transporters (MCT); conditions: competitive inhibitor of lactate transport in tumors; read-out: Ki as inhibitor of lactate transport; cited from earlier work
[6] = A549 cells, 24 + 48 h, read-out: IC50 (24 + 48 h)
[7] = A549 cells, 72 h, read-out: IC50 (72 h)
[8] = 500 μg/mL in 18% rat serum, two days

Structure (SMILES): CCCCCCCCCCCCCCCC(=O)NC(COC(=O)C(Cl)Cl)(COC(=O)C(Cl)Cl)COC(=O)C(Cl)Cl [PDCA, Palmitic-Tris-DCA]
IC50 (A549 cells; [6]): 204 µM | IC50 (A549 cells; [7]): 175 µM | IC50 (A549 cells; cell line not stated in the sentence (values match A549 of Table 2), read-out: IC50 value): ~204 µM

Structure (SMILES): CC(C)(OC(=O)C(Cl)Cl)C(=O)NCCCC[P+](c1ccccc1)(c1ccccc1)c1ccccc1.[Br-] [TPP-ib-DCA, (4-(2-(2,2-dichloroacetoxy)-2-methylpropanamido)butyl) triphenylphosphonium bromide]
appearance of free DCA ([1]; 500 μg/mL in 18% rat serum): delayed relative to the disappearance of the ester | hydrolysis in serum compared with MitoDCA ([1]; 500 μg/mL in 18% rat serum): slower than MitoDCA | hydrolysis in water ([2]; 500 μg/mL in water): stops halfway

Structure (SMILES): CN(C)C(=N)N=C(N)N [Meformin, Metformin, reference compound]
IC50 (A549 cells; Homo sapiens, A549 cells, 24 + 48 h, Table 4, read-out: IC50 (24 + 48 h)): > 500 µM | IC50 (A549 cells; Homo sapiens, A549 cells, 72 h, Table 4, read-out: IC50 (72 h)): > 500 µM | IC50 (A549 cells; Homo sapiens, A549 cells, read-out: IC50 values): > 500 µM | IC50 (HCT116 cells; Homo sapiens, HCT-116, 24 + 48 h, Table 4, read-out: IC50 (24 + 48 h)): > 500 µM | IC50 (HCT116 cells; Homo sapiens, HCT-116, 72 h, Table 4, read-out: IC50 (72 h)): > 500 µM | IC50 (HCT116 cells; Homo sapiens, HCT-116, read-out: IC50 values): > 500 µM

half-life at 500 μM ([3]; cell culture medium with 10% FBS (no cells), 500 μM, RPMI 1640 with 10% FBS, 37° C.): ~1200 min | half-life at 0.5 mg/mL ([1]; 0.5 mg/mL in 18% rat serum): ~420 min
Structure (SMILES): O=C(CCCCC[P+](c1ccccc1)(c1ccccc1)c1ccccc1)NC(COC(=O)CCNC(=O)C(Cl)Cl)(COC(=O)CCNC(=O)C(Cl)Cl)COC(=O)CCNC(=O)C(Cl)Cl.[Br-] [Mito-ADCA, TPP-Tris-β-alanino-DCA]
species released by hydrolysis ([3]; cell media with 10% FBS): Alanyl-DCA is released as a result of hydrolysis instead of DCA | species released by hydrolysis ([1]; 18% rat serum): Alanyl-DCA is released as a result of hydrolysis instead of DCA | stability in water [2]: stable in water for 2 days without signs of decomposition

Structure (SMILES): O=C([O-])C(Cl)Cl.[Na+] [NaDCA, reference compound]
IC50 (A549 cells; [6]): > 20000 µM | IC50 (A549 cells; [7]): > 20000 µM | IC50 (A549 cells; cell line not stated in the sentence (A549 and HCT16 cells studied), read-out: IC50 value): ≥ 20000 µM | IC50 (HCT116 cells; 24 + 48 h, read-out: IC50 (24 + 48 h)): > 20000 µM | IC50 (HCT116 cells; 72 h, read-out: IC50 (72 h)): > 20000 µM

Structure (SMILES): CCCCCCCCCCCCCCCC(=O)NC(COC(=O)CCNC(=O)C(Cl)Cl)(COC(=O)CCNC(=O)C(Cl)Cl)COC(=O)CCNC(=O)C(Cl)Cl [PADCA, Palm-Tris-β-alanino-DCA]
IC50 (A549 cells; Homo sapiens, A549 cells, free PADCA, read-out: IC50 value): ~400 µM

decomposition in serum ([1]; 500 μg/mL in 18% rat serum, after 2 days): 2% | detection of DCA [1, 8]: no DCA was detected | stability in serum [1, 8]: stable in both serum and water | stability in water [2]: stable in both serum and water
Structure (SMILES): O=C(NCCCCC(NC(=O)C(Cl)Cl)C(=O)NCCCC[P+](c1ccccc1)(c1ccccc1)c1ccccc1)C(Cl)Cl (stereo not shown) [TPP-bis-ADCA]

Structure (SMILES): CN(C)C(=O)c1ccc(S(=O)(=O)c2ccc(NC(=O)[C@@](C)(O)C(F)(F)F)c(Cl)c2)cc1 [AZD7545, 4-[3-chloro-4-[[(2R)-3,3,3-trifluoro-2-hydroxy-2-methylpropanoyl]amino]phenyl]sulfonyl-N,N-dimethylbenzamide]
IC50 (PDHK2): 6.4 nM | EC50 [4]: 105 nM

Structure (SMILES): N#CC(=Cc1ccc(O)cc1)C(=O)O [ACCA, α-cyano-4-hydroxy cinnamic acid]
Ki [5]: 500 µM

Structure (SMILES): O=C(O)CCNC(=O)C(Cl)Cl [ADCA, β-alanyl-DCA]
change in ADCA concentration (total area of absorbance peak) ([3]; 1.5 mM, cell culture media with 10% FBS, 37° C., five days): virtually no change in ADCA concentration over five days
